Our source for the IC50 values is patent publication US20150284375A1 (AJINOMOTO CO., INC., priority 2012, published 2015).

T1 sequence (O75762 whole entry): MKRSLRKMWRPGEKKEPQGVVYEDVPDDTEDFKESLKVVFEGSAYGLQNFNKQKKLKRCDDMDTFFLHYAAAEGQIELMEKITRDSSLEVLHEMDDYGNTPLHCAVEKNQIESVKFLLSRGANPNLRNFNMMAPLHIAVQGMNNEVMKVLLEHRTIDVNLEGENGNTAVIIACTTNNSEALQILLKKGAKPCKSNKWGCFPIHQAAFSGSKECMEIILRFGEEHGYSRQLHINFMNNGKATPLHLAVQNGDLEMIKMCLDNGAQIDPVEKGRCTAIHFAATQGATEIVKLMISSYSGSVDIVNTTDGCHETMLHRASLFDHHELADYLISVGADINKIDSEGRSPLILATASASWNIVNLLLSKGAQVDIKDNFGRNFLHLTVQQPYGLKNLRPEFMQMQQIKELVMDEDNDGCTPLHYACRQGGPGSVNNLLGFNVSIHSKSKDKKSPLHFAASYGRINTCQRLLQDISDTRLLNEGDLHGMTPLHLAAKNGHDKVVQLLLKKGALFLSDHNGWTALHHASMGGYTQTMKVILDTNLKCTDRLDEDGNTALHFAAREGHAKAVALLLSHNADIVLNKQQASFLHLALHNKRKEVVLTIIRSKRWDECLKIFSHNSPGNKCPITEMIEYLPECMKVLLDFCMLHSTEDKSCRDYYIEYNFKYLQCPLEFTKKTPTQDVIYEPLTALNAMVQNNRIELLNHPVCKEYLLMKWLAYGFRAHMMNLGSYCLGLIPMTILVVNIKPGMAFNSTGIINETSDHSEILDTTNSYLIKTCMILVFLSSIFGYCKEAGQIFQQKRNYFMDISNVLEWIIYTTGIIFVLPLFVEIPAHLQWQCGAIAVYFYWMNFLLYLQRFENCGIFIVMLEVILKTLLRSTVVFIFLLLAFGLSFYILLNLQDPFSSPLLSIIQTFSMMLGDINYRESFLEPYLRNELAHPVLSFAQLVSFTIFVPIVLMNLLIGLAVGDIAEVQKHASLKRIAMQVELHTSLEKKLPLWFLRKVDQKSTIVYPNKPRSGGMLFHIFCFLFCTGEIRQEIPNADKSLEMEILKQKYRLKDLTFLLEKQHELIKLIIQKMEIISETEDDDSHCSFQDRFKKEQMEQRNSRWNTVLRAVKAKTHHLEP

This assay concerns the target T1, human TRPA1 (Homo sapiens, UniProt O75762).
T1 construct: expressed in transfected cells; host or cells: Human embryonic kidney-derived 293T cells, transiently transfected with the pcDNA3.1/zeo(+) human TRPA1 plasmid
The assay is described as follows: Measurement of TRPA1 antagonist activity (intracellular calcium increase, FLIPR, allylisothiocyanate stimulation). The format is cell-based. The conditions noted are these: allylisothiocyanate 20 μM stimulation, FLIPR calcium assay; read-out: antagonism hTRPA1. An outline of the steps: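 IC50 derives from a sigmoid fit of inhibition of the 5-min FLIPR fluorescence change evoked by 20 μM allylisothiocyanate, normalized between agonist and buffer responses. Test substance, diluted in HBSS/20 mM HEPES pH 7.2 plus 0.1% BSA, was applied 10 min beforehand at room temperature to Calcium4-loaded 293T cells transiently expressing human TRPA1.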
Background: Calcium flux is commonly read through the fluorescence of an indicator in the cells.
On to `CC(C)(C)c1ccc(COc2cccc(CNC(=O)[C@@H]3CCCN3S(=O)(=O)c3ccc(F)cc3)c2)cc1` [Example 122], for which the IC50 was 440 nM. The value for `O=C(NCc1cccc(OCc2cccc(C(F)(F)F)c2)c1)[C@@H]1CCCN1S(=O)(=O)c1ccc(F)cc1` [Example 123, (2S)-1-(4-fluorophenyl)sulfonyl-N-[[3-[[3-(trifluoromethyl)phenyl]methoxy]phenyl]methyl]pyrrolidine-2-carboxamide] was 25 nM; that for `COc1cccc(COc2cccc(CNC(=O)[C@@H]3CCCN3S(=O)(=O)c3ccc(F)cc3)c2)c1` [Example 124, (2S)-1-(4-fluorophenyl)sulfonyl-N-[[3-[(3-methoxyphenyl)methoxy]phenyl]methyl]pyrrolidine-2-carboxamide] was 130 nM; that for `CN(C)c1cccc(COc2cccc(CNC(=O)[C@@H]3CCCN3S(=O)(=O)c3ccc(F)cc3)c2)c1` [Example 125, (2S)-N-[[3-[[3-(dimethylamino)phenyl]methoxy]phenyl]methyl]-1-(4-fluorophenyl)sulfonyl-pyrrolidine-2-carboxamide] was 38 nM. Consider `O=C(NCc1cccc(OCc2cccc(N3CCCCC3)c2)c1)[C@@H]1CCCN1S(=O)(=O)c1ccc(F)cc1` [Example 126, (2S)-1-(4-fluorophenyl)sulfonyl-N-[[3-[[3-(1-piperidyl)phenyl]methoxy]phenyl]methyl]pyrrolidine-2-carboxamide], for which the IC50 stood at 38 nM.

With `O=C(NCc1cccc(OCc2cccc(N3CCOCC3)c2)c1)[C@@H]1CCCN1S(=O)(=O)c1ccc(F)cc1` [Example 127, (2S)-1-(4-fluorophenyl)sulfonyl-N-[[3-[(3-morpholinophenyl)methoxy]phenyl]methyl]pyrrolidine-2-carboxamide], the IC50 turned out to be 130 nM. `O=C(NCc1cccc(OCc2ccccc2F)c1)[C@@H]1CCCN1S(=O)(=O)c1ccc(F)cc1` [Example 128, (2S)-N-[[3-[(2-fluorophenyl)methoxy]phenyl]methyl]-1-(4-fluorophenyl)sulfonyl-pyrrolidine-2-carboxamide]: the IC50 turned out to be 120 nM. For `CN(C)c1ccccc1COc1cccc(CNC(=O)[C@@H]2CCCN2S(=O)(=O)c2ccc(F)cc2)c1` [Example 129, (2S)-N-[[3-[[2-(dimethylamino)phenyl]methoxy]phenyl]methyl]-1-(4-fluorophenyl)sulfonyl-pyrrolidine-2-carboxamide], the IC50 came to 640 nM. The value for `O=C(NCc1cccc(OCc2ccc(F)c(F)c2)c1)[C@@H]1CCCN1S(=O)(=O)c1ccc(F)cc1` [Example 130, (2S)-N-[[3-[(3,4-difluorophenyl)methoxy]phenyl]methyl]-1-(4-fluorophenyl)sulfonyl-pyrrolidine-2-carboxamide] was 20 nM; that for `O=C(NCc1cccc(OCc2ccc(Cl)c(F)c2)c1)[C@@H]1CCCN1S(=O)(=O)c1ccc(F)cc1` [Example 131, (2S)-N-[[3-[(4-chloro-3-fluoro-phenyl)methoxy]phenyl]methyl]-1-(4-fluorophenyl)sulfonyl-pyrrolidine-2-carboxamide] was 14 nM; that for `O=C(NCc1cccc(OCc2cccnc2)c1)[C@@H]1CCCN1S(=O)(=O)c1ccc(F)cc1` [Example 132, (2S)-1-(4-fluorophenyl)sulfonyl-N-[[3-(3-pyridylmethoxy)phenyl]methyl]pyrrolidine-2-carboxamide] was 2600 nM. For the compound `O=C(NCc1cccc(OCc2ccncc2)c1)[C@@H]1CCCN1S(=O)(=O)c1ccc(F)cc1` [Example 133, (2S)-1-(4-fluorophenyl)sulfonyl-N-[[3-(4-pyridylmethoxy)phenyl]methyl]pyrrolidine-2-carboxamide], the IC50 amounted to 4400 nM.

Regarding `O=C(NCc1cccc(OCc2ccc(C(F)(F)F)nc2)c1)[C@@H]1CCCN1S(=O)(=O)c1ccc(F)cc1` [Example 134, (2S)-1-(4-fluorophenyl)sulfonyl-N-[[3-[[6-(trifluoromethyl)-3-pyridyl]methoxy]phenyl]methyl]pyrrolidine-2-carboxamide], the IC50 is 38 nM. `O=C(NCc1cccc(OCc2ccnc(C(F)(F)F)c2)c1)[C@@H]1CCCN1S(=O)(=O)c1ccc(F)cc1` [Example 135, (2S)-1-(4-fluorophenyl)sulfonyl-N-[[3-[[2-(trifluoromethyl)-4-pyridyl]methoxy]phenyl]methyl]pyrrolidine-2-carboxamide]: the IC50 came to 67 nM. With `O=C(NCc1cccc(OCc2cccc(C(F)(F)F)n2)c1)[C@@H]1CCCN1S(=O)(=O)c1ccc(F)cc1` [Example 136, (2S)-1-(4-fluorophenyl)sulfonyl-N-[[3-[[6-(trifluoromethyl)-2-pyridyl]methoxy]phenyl]methyl]pyrrolidine-2-carboxamide] the figure was 140 nM.

On to `O=C(NCc1cccc(OCc2cncc(C(F)(F)F)c2)c1)[C@@H]1CCCN1S(=O)(=O)c1ccc(F)cc1` [Example 137, (2S)-1-(4-fluorophenyl)sulfonyl-N-[[3-[[5-(trifluoromethyl)-3-pyridyl]methoxy]phenyl]methyl]pyrrolidine-2-carboxamide], for which the IC50 came to 44 nM. With `O=C(NCc1cccc(OCc2cncc(Cl)c2)c1)[C@@H]1CCCN1S(=O)(=O)c1ccc(F)cc1` [Example 138, (2S)-N-[[3-[(5-chloro-3-pyridyl)methoxy]phenyl]methyl]-1-(4-fluorophenyl)sulfonyl-pyrrolidine-2-carboxamide] the figure was 110 nM. With `O=C(NCc1cccc(OCc2ccoc2)c1)[C@@H]1CCCN1S(=O)(=O)c1ccc(F)cc1` [Example 139, (2S)-1-(4-fluorophenyl)sulfonyl-N-[[3-(3-furylmethoxy)phenyl]methyl]pyrrolidine-2-carboxamide] the figure was 290 nM; with `O=C(NCc1cccc(OCc2ccco2)c1)[C@@H]1CCCN1S(=O)(=O)c1ccc(F)cc1` [Example 140, (2S)-1-(4-fluorophenyl)sulfonyl-N-[[3-(2-furylmethoxy)phenyl]methyl]pyrrolidine-2-carboxamide], 330 nM.

With `O=C(NCc1cccc(OCc2ccsc2)c1)[C@@H]1CCCN1S(=O)(=O)c1ccc(F)cc1` [Example 141, (2S)-1-(4-fluorophenyl)sulfonyl-N-[[3-(3-thienylmethoxy)phenyl]methyl]pyrrolidine-2-carboxamide], the IC50 is 89 nM.

For the compound `O=C(NCc1cccc(OCc2cccs2)c1)[C@@H]1CCCN1S(=O)(=O)c1ccc(F)cc1` [Example 142, (2S)-1-(4-fluorophenyl)sulfonyl-N-[[3-(2-thienylmethoxy)phenyl]methyl]pyrrolidine-2-carboxamide], the IC50 was found to be 110 nM.

For `C[C@H](Oc1cccc(CNC(=O)[C@@H]2CCCN2S(=O)(=O)c2ccc(F)cc2)c1)c1ccccc1` [Example 144, (2S)-1-(4-fluorophenyl)sulfonyl-N-[[3-[(1S)-1-phenylethoxy]phenyl]methyl]pyrrolidine-2-carboxamide], the IC50 came to 550 nM. The value for `C[C@@H](Oc1cccc(CNC(=O)[C@@H]2CCCN2S(=O)(=O)c2ccc(F)cc2)c1)c1ccccn1` [Example 146, (2S)-1-(4-fluorophenyl)sulfonyl-N-[[3-[(1R)-1-(2-pyridyl)ethoxy]phenyl]methyl]pyrrolidine-2-carboxamide] was 9800 nM; that for `C[C@H](Oc1cccc(CNC(=O)[C@@H]2CCCN2S(=O)(=O)c2ccc(F)cc2)c1)c1ccccn1` [Example 147, (2S)-1-(4-fluorophenyl)sulfonyl-N-[[3-[(1S)-1-(2-pyridyl)ethoxy]phenyl]methyl]pyrrolidine-2-carboxamide] was 8300 nM; that for `O=C(NCc1cccc(OCCc2ccccc2)c1)[C@@H]1CCCN1S(=O)(=O)c1ccc(F)cc1` [Example 148, (2S)-1-(4-fluorophenyl)sulfonyl-N-[(3-phenethyloxyphenyl)methyl]pyrrolidine-2-carboxamide] was 340 nM. For `O=C(NCc1cccc(OCc2ccc(C(F)(F)F)nc2)c1)[C@@H]1CCCN1S(=O)(=O)c1ccco1` [Example 149, (2S)-1-(2-furylsulfonyl)-N-[[3-[[6-(trifluoromethyl)-3-pyridyl]methoxy]phenyl]methyl]pyrrolidine-2-carboxamide], the IC50 came to 240 nM. With `O=C(NCc1cccc(OCc2ccnc(C(F)(F)F)c2)c1)[C@@H]1CCCN1S(=O)(=O)c1ccco1` [Example 150, (2S)-1-(2-furylsulfonyl)-N-[[3-[[2-(trifluoromethyl)-4-pyridyl]methoxy]phenyl]methyl]pyrrolidine-2-carboxamide] the figure was 110 nM; with `O=C(NCc1ccc(Oc2cccc(C(F)(F)F)c2)cc1)[C@@H]1C=CCN1S(=O)(=O)c1ccc(F)cc1` [Example 151, (2S)-1-(4-fluorophenyl)sulfonyl-N-[[4-[3-(trifluoromethyl)phenoxy]phenyl]methyl]-2,5-dihydropyrrole-2-carboxamide], 290 nM. Regarding `O=C(NCc1ccc(Oc2cccc(C(F)(F)F)c2)cc1)[C@@H]1CCCN1S(=O)(=O)c1ccco1` [Example 152, (2S)-1-(2-furylsulfonyl)-N-[[4-[3-(trifluoromethyl)phenoxy]phenyl]methyl]pyrrolidine-2-carboxamide], the IC50 was determined as 460 nM. Consider `O=C(NCc1ccc(Oc2cccc(C(F)(F)F)c2)cc1)[C@@H]1CCCN1S(=O)(=O)c1ccoc1` [Example 153, (2S)-1-(3-furylsulfonyl)-N-[[4-[3-(trifluoromethyl)phenoxy]phenyl]methyl]pyrrolidine-2-carboxamide], for which the IC50 stood at 310 nM. For the compound `O=C(NCc1ccc(Oc2cccc(C(F)(F)F)c2)cc1)[C@@H]1CCCN1S(=O)(=O)c1ccsc1` [Example 154, (2S)-1-(3-thienylsulfonyl)-N-[[4-[3-(trifluoromethyl)phenoxy]phenyl]methyl]pyrrolidine-2-carboxamide], the IC50 is 180 nM.
